The values that follow come from US9758445B2, “Preparation of surfactants via cross-metathesis” (MATERIA, INC., priority 2013, dated 2017).

SMILES strings stand for the structures.

A short description of this data set: Surfactant Foaming Test in tap water. The class given is physicochemical. More on the design: key: A: No Foam Generated; B: Small Volume of Foam Generated; C: Large Volume of Foam Generated. The conditions noted are these: surfactant 0.023 wt %, tap water 7.0 mL, 23° C., shaken vigorously, foaming recorded after standing 3 minutes. As to the method:
To a 20 mL scintillation vial was added surfactant (0.023 wt %) and tap water (7.0 mL, 23° C.). The vial was sealed and the solution was shaken vigorously. The solution was allowed to stand for 3 minutes and foaming was recorded.
`CCCCCCCCC(C)c1ccc(COCCOCCOCCOC)cc1` (stereo not shown) [R=CH2O(CH2CH2O)3CH3; n=7, 1-(4-(Decan-2-yl)phenyl)-2,5,8,11-tetraoxadodecane]: the “Surfactant Foaming Test Results” value is listed as “A”.
In the case of `CCCCCCCCCCC(C)c1ccc(COCCOCCOCCOC)cc1` (stereo not shown) [R=CH2O(CH2CH2O)3CH3; n=9, 1-(4-(Dodecan-2-yl)phenyl)-2,5,8,11-tetraoxadodecane] it was “B”; in that of `CCCCCCCCCCCCC(C)c1ccc(COCCOCCOCCOC)cc1` (stereo not shown) [R=CH2O(CH2CH2O)3CH3; n=11, 1-(4-(Tetradecan-2-yl)phenyl)-2,5,8,11-tetraoxadodecane], “B”.
In the case of `CCCCCCCCC(C)c1ccc(COCCOCCOCCO)cc1` (stereo not shown) [R=CH2O(CH2CH2O)3H; n=7, 2-(2-(2-((4-(Decan-2-yl)benzyl)oxy)ethoxy)ethoxy)ethanol] it was “C”.
In the case of `CCCCCCCCCC(C)c1ccc(COCCOCCOCCO)cc1` (stereo not shown) [R=CH2O(CH2CH2O)3H; n=8, 2-(2-(2-((4-(undecan-2-yl)benzyl)oxy)ethoxy)ethoxy)ethanol] it was “C”; in that of `CCCCCCCCCCC(C)c1ccc(COCCOCCOCCO)cc1` (stereo not shown) [R=CH2O(CH2CH2O)3H; n=9, 2-(2-(2-((4-(dodecan-2-yl)benzyl)oxy)ethoxy)ethoxy)ethanol], “C”.
Consider `CCCCCCCCCCCC(C)c1ccc(COCCOCCOCCO)cc1` (stereo not shown) [R=CH2O(CH2CH2O)3H; n=10, 2-(2-(2-((4-(tridecan-2-yl)benzyl)oxy)ethoxy)ethoxy)ethanol], for which the “Surfactant Foaming Test Results” value is “C”.
Consider `CCCCCCCCCCCCC(C)c1ccc(COCCOCCOCCO)cc1` (stereo not shown) [R=CH2O(CH2CH2O)3H; n=11, 2-(2-(2-((4-(tetradecan-2-yl)benzyl)oxy)ethoxy)ethoxy)ethanol], for which the “Surfactant Foaming Test Results” value was “C”.
In the case of `CCCCCCCCC(C)c1ccc(COCCOCCOCCOCCOC)cc1` (stereo not shown) [R=CH2O(CH2CH2O)4CH3; n=7, 1-(4-(Decan-2-yl)phenyl)-2,5,8,11,14-pentaoxapentadecane] it was “C”; in that of `CCCCCCCCCC(C)c1ccc(COCCOCCOCCOCCOC)cc1` (stereo not shown) [R=CH2O(CH2CH2O)4CH3; n=8, 1-(4-(Undecan-2-yl)phenyl)-2,5,8,11,14-pentaoxapentadecane], “B”; in that of `CCCCCCCCCCC(C)c1ccc(COCCOCCOCCOCCOC)cc1` (stereo not shown) [R=CH2O(CH2CH2O)4CH3; n=9, 1-(4-(Dodecan-2-yl)phenyl)-2,5,8,11,14-pentaoxapentadecane], “C”.
With `CCCCCCCCCCCC(C)c1ccc(COCCOCCOCCOCCOC)cc1` (stereo not shown) [R=CH2O(CH2CH2O)4CH3; n=10, 1-(4-(Tridecan-2-yl)phenyl)-2,5,8,11,14-pentaoxapentadecane] the entry was “B”.
In the case of `CCCCCCCCCCCCC(C)c1ccc(COCCOCCOCCOCCOC)cc1` (stereo not shown) [R=CH2O(CH2CH2O)4CH3; n=11, 1-(4-(Tetradecan-2-yl)phenyl)-2,5,8,11,14-pentaoxapentadecane] it was “B”; in that of `CCCCCCCCCCCCCCC(C)c1ccc(COCCOCCOCCOCCOC)cc1` (stereo not shown) [R=CH2O(CH2CH2O)4CH3; n=13, 1-(4-(Hexadecan-2-yl)phenyl)-2,5,8,11,14-pentaoxapentadecane], “B”; in that of `CCCCCCCCC(C)c1ccc(COCCOCCOCCOCCO)cc1` (stereo not shown) [R=CH2O(CH2CH2O)4H; n=7, 1-(4-(Decan-2-yl)phenyl)-2,5,8,11-tetraoxatridecan-13-ol], “C”.
As to `CCCCCCCCCC(C)c1ccc(COCCOCCOCCOCCO)cc1` (stereo not shown) [R=CH2O(CH2CH2O)4H; n=8, 1-(4-(Undecan-2-yl)phenyl)-2,5,8,11-tetraoxatridecan-13-ol], the “Surfactant Foaming Test Results” value is listed as “C”.
On to `CCCCCCCCCCC(C)c1ccc(COCCOCCOCCOCCO)cc1` (stereo not shown) [R=CH2O(CH2CH2O)4H; n=9, 1-(4-(Dodecan-2-yl)phenyl)-2,5,8,11-tetraoxatridecan-13-ol], for which the “Surfactant Foaming Test Results” value is “C”.
In the case of `CCCCCCCCCCCC(C)c1ccc(COCCOCCOCCOCCO)cc1` (stereo not shown) [R=CH2O(CH2CH2O)4H; n=10, 1-(4-(Tridecan-2-yl)phenyl)-2,5,8,11-tetraoxatridecan-13-ol] it was “C”; in that of `CCCCCCCCCCCCC(C)c1ccc(COCCOCCOCCOCCO)cc1` (stereo not shown) [R=CH2O(CH2CH2O)4H; n=11, 1-(4-(Tetradecan-2-yl)phenyl)-2,5,8,11-tetraoxatridecan-13-ol], “C”.
With `CCCCCCCCCCCCCCC(C)c1ccc(COCCOCCOCCOCCO)cc1` (stereo not shown) [R=CH2O(CH2CH2O)4H; n=13, 1-(4-(Hexadecan-2-yl)phenyl)-2,5,8,11-tetraoxatridecan-13-ol] the entry was “C”; with `CCCCCCCCC(C)c1ccc(COCCOC)cc1` (stereo not shown) [R=CH2OCH2CH2OCH3; n=7, 1-(Decan-2-yl)-4-((2-methoxyethoxy)methyl)benzene], “B”.
For the compound `CCCCCCCCCCCC(C)c1ccc(COCCOC)cc1` (stereo not shown) [R=CH2OCH2CH2OCH3; n=10, 1-((2-Methoxyethoxy)methyl)-4-(tridecan-2-yl)benzene], the “Surfactant Foaming Test Results” value was “C”.
With `CCCCCCCCCCCCC(C)c1ccc(COCCOC)cc1` (stereo not shown) [R=CH2OCH2CH2OCH3; n=11, 1-((2-Methoxyethoxy)methyl)-4-(tetradecan-2-yl)benzene] the entry was “C”.
In the case of `CCCCCCCCCCCCCCC(C)c1ccc(COCCOC)cc1` (stereo not shown) [R=CH2OCH2CH2OCH3; n=13, 1-(Hexadecan-2-yl)-4-((2-methoxyethoxy)methyl)benzene] it was “C”.
In the case of `CCCCCCCCC(C)c1ccc(COCCO)cc1` (stereo not shown) [R=CH2OCH2CH2OH; n=7, 2-((4-(Decan-2-yl)benzyl)oxy)ethanol] it was “A”.
As for `CCCCCCCCCC(C)c1ccc(COCCO)cc1` (stereo not shown) [R=CH2OCH2CH2OH; n=8, 2-((4-(Undecan-2-yl)benzyl)oxy)ethanol], the “Surfactant Foaming Test Results” value is “A”.
With `CCCCCCCCCCC(C)c1ccc(COCCO)cc1` (stereo not shown) [R=CH2OCH2CH2OH; n=9, 2-((4-(Dodecan-2-yl)benzyl)oxy)ethanol] the entry was “A”; with `CCCCCCCCCCCC(C)c1ccc(COCCO)cc1` (stereo not shown) [R=CH2OCH2CH2OH; n=10, 2-((4-(Tridecan-2-yl)benzyl)oxy)ethanol], “A”; with `CCCCCCCCCCCCC(C)c1ccc(COCCO)cc1` (stereo not shown) [R=CH2OCH2CH2OH; n=11, 2-((4-(Tetradecan-2-yl)benzyl)oxy)ethanol], “A”.
With `CCCCCCCCCCCCCCC(C)c1ccc(COCCO)cc1` (stereo not shown) [R=CH2OCH2CH2OH; n=13, 2-((4-(Hexadecan-2-yl)benzyl)oxy)ethanol] the entry was “A”.
In the case of `CCCCCCCCC(C)c1ccc(CO)cc1` (stereo not shown) [R=CH2OH; n=7, (4-(Decan-2-yl)phenyl)methanol] it was “A”; in that of `CCCCCCCCCC(C)c1ccc(CO)cc1` (stereo not shown) [R=CH2OH; n=8, (4-(Undecan-2-yl)phenyl)methanol], “A”.
`CCCCCCCCCCC(C)c1ccc(CO)cc1` (stereo not shown) [R=CH2OH; n=9, (4-(Dodecan-2-yl)phenyl)methanol]: the “Surfactant Foaming Test Results” value was “A”.
With `CCCCCCCCCCCC(C)c1ccc(CO)cc1` (stereo not shown) [R=CH2OH; n=10, (4-(Tridecan-2-yl)phenyl)methanol] the entry was “A”.
